{
  "source": "patent US20110183941A1",
  "about": "(priority 2010, published 2011)",
  "origin": "cited, not measured here",
  "settings": "at room temperature",
  "data": [
    {"smiles": "O=C(O)CNCP(=O)(O)O", "note": "[glyphosate]", "values": [
      {"measurement": "solubility", "value": 1.5, "unit": "%"}
    ]}
  ]
}
